Source: the kinase profiling compilation of Christmann-Franck et al. (2016)

Legend:
PIM1 (human) [1] = biological target: PIM1 (human) (UniProt P11309); assay: SelectScreen, TR FRET
PIM2 (human) [2] = biological target: PIM2 (human) (UniProt Q9P1W9); assay: SelectScreen, TR FRET
PIK3CG (human) = PIK3CG (human) (UniProt P48736); assay: KINOMEscan competition binding; details: compound 10.0 µM
DAPK2 (human) = DAPK2 (human) (UniProt Q9UIK4); assay: KINOMEscan competition binding; details: compound 10.0 µM
[3] = test system: EIF2AK4 KD2 (human), Q9P2K8 [S808G]; assay: KINOMEscan competition binding; details: compound 10.0 µM
CDK7 (human) = CDK7 (human) (UniProt P50613); assay: KINOMEscan competition binding; details: compound 10.0 µM
CLK4 (human) = CLK4 (human) (UniProt Q9HAZ1); assay: KINOMEscan competition binding; details: compound 10.0 µM
MAPK12 (human) = MAPK12 (human) (UniProt P53778); assay: KINOMEscan competition binding; details: compound 10.0 µM
STK17A (human) = STK17A (human) (UniProt Q9UEE5); assay: KINOMEscan competition binding; details: compound 10.0 µM
STK17B (human) = STK17B (human) (UniProt O94768); assay: KINOMEscan competition binding; details: compound 10.0 µM
[4] = biological target: TYK2 JH2 pseudokinase (human) (UniProt P29597); assay: KINOMEscan competition binding; details: compound 10.0 µM
PLK4 (human) = PLK4 (human) (UniProt O00444); assay: KINOMEscan competition binding; details: compound 10.0 µM
TGFBR2 (human) = TGFBR2 (human) (UniProt P37173); assay: KINOMEscan competition binding; details: compound 10.0 µM
CSNK2A1 (human) = CSNK2A1 (human) (UniProt P68400); assay: KINOMEscan competition binding; details: compound 10.0 µM
PIM1 (human) [5] = biological target: PIM1 (human) (UniProt P11309); assay: KINOMEscan competition binding; details: compound 10.0 µM
GSK3A (human) = GSK3A (human) (UniProt P49840); assay: KINOMEscan competition binding; details: compound 10.0 µM
ZAP70 (human) = ZAP70 (human) (UniProt P43403); assay: KINOMEscan competition binding; details: compound 10.0 µM
HIPK1 (human) = HIPK1 (human) (UniProt Q86Z02); assay: KINOMEscan competition binding; details: compound 10.0 µM
CSNK2A2 (human) = CSNK2A2 (human) (UniProt P19784); assay: KINOMEscan competition binding; details: compound 10.0 µM
PIM2 (human) [6] = biological target: PIM2 (human) (UniProt Q9P1W9); assay: KINOMEscan competition binding; details: compound 10.0 µM
PIM3 (human) = PIM3 (human) (UniProt Q86V86); assay: KINOMEscan competition binding; details: compound 10.0 µM
CDK16 (human) = CDK16 (human) (UniProt Q00536); assay: KINOMEscan competition binding; details: compound 10.0 µM
ACVR2A (human) = ACVR2A (human) (UniProt P27037); assay: KINOMEscan competition binding; details: compound 10.0 µM
RIOK1 (human) = RIOK1 (human) (UniProt Q9BRS2); assay: KINOMEscan competition binding; details: compound 10.0 µM
DAPK1 (human) = DAPK1 (human) (UniProt P53355); assay: KINOMEscan competition binding; details: compound 10.0 µM
MYLK (human) = MYLK (human) (UniProt Q15746); assay: KINOMEscan competition binding; details: compound 10.0 µM
RPS6KA4 KD2 (human) = RPS6KA4 KD2 (human) (UniProt O75676); assay: KINOMEscan competition binding; details: compound 10.0 µM
MYLK4 (human) = MYLK4 (human) (UniProt Q86YV6); assay: KINOMEscan competition binding; details: compound 10.0 µM
TAOK1 (human) = TAOK1 (human) (UniProt Q7L7X3); assay: KINOMEscan competition binding; details: compound 10.0 µM
DYRK1B (human) = DYRK1B (human) (UniProt Q9Y463); assay: KINOMEscan competition binding; details: compound 10.0 µM
MINK1 (human) = MINK1 (human) (UniProt Q8N4C8); assay: KINOMEscan competition binding; details: compound 10.0 µM
MKNK2 (human) = MKNK2 (human) (UniProt Q9HBH9); assay: KINOMEscan competition binding; details: compound 10.0 µM
AAK1 (human) = AAK1 (human) (UniProt Q2M2I8); assay: KINOMEscan competition binding; details: compound 10.0 µM
MAP2K3 (human) = MAP2K3 (human) (UniProt P46734); assay: KINOMEscan competition binding; details: compound 10.0 µM
ACVR2B (human) = ACVR2B (human) (UniProt Q13705); assay: KINOMEscan competition binding; details: compound 10.0 µM
TAOK3 (human) = TAOK3 (human) (UniProt Q9H2K8); assay: KINOMEscan competition binding; details: compound 10.0 µM
DAPK3 (human) = DAPK3 (human) (UniProt O43293); assay: KINOMEscan competition binding; details: compound 10.0 µM
TTK (human) = TTK (human) (UniProt P33981); assay: KINOMEscan competition binding; details: compound 10.0 µM
GAK (human) = GAK (human) (UniProt O14976); assay: KINOMEscan competition binding; details: compound 10.0 µM
MAPK15 (human) = MAPK15 (human) (UniProt Q8TD08); assay: KINOMEscan competition binding; details: compound 10.0 µM

Sequence of PIM2 (human) (Q9P1W9 whole entry, looked up): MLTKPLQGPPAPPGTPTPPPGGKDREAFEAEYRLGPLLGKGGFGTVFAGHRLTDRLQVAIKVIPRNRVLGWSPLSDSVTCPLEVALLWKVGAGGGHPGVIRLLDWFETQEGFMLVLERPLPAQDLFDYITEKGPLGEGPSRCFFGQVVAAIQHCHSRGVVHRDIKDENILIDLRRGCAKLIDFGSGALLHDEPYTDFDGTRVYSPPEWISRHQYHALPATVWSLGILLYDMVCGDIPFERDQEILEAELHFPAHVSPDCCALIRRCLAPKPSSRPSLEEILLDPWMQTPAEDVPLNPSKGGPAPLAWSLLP
Sequence of PIM1 (human) (P11309 whole entry, looked up): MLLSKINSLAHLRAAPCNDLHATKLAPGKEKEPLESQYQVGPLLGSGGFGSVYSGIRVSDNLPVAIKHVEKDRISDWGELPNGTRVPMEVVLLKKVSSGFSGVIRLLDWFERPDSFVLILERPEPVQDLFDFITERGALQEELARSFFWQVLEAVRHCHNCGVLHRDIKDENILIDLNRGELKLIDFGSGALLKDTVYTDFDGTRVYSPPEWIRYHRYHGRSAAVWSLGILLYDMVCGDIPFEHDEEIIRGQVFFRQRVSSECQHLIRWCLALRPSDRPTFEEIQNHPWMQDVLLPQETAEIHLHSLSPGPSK
Sequence of DAPK2 (human) (Q9UIK4 whole entry, looked up): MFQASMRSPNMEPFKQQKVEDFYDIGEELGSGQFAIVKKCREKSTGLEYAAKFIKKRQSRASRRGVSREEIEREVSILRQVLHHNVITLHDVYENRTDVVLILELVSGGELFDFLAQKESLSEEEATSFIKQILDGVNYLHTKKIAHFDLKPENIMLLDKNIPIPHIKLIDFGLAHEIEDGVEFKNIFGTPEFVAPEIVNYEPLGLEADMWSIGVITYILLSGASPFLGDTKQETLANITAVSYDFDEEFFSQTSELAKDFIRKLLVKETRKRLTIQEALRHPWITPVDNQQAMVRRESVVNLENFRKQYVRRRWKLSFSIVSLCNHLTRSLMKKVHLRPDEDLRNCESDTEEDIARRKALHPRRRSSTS
Sequence of PIK3CG (human) (P48736 whole entry, looked up): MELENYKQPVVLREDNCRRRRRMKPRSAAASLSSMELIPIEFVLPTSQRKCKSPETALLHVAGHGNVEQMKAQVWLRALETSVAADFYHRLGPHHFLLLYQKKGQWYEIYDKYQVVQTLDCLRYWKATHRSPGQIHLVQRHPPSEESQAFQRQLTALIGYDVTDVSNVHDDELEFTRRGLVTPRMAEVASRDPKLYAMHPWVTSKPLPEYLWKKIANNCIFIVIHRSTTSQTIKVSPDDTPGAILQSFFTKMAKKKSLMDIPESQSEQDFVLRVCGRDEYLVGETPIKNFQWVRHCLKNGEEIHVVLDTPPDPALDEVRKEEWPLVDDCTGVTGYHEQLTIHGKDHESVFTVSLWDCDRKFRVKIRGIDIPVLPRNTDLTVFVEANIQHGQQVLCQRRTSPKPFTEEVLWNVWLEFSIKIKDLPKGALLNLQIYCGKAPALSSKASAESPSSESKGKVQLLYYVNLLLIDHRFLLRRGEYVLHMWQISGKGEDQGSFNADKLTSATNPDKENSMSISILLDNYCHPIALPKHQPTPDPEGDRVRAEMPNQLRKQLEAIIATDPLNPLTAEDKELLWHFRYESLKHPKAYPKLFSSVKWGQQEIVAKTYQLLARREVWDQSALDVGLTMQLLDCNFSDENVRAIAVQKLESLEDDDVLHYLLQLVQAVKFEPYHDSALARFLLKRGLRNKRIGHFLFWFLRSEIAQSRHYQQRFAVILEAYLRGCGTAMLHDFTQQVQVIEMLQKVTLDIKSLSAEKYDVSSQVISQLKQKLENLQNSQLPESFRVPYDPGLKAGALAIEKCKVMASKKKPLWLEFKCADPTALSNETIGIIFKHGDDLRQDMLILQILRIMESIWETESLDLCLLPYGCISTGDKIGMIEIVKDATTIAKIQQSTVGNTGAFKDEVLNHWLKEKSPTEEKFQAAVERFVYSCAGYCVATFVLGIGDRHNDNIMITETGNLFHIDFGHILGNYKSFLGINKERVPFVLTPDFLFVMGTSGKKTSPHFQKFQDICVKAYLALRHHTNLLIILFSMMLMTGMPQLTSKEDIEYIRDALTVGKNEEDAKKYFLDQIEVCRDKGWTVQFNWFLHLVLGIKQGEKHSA
Sequence of TGFBR2 (human) (P37173 whole entry, looked up): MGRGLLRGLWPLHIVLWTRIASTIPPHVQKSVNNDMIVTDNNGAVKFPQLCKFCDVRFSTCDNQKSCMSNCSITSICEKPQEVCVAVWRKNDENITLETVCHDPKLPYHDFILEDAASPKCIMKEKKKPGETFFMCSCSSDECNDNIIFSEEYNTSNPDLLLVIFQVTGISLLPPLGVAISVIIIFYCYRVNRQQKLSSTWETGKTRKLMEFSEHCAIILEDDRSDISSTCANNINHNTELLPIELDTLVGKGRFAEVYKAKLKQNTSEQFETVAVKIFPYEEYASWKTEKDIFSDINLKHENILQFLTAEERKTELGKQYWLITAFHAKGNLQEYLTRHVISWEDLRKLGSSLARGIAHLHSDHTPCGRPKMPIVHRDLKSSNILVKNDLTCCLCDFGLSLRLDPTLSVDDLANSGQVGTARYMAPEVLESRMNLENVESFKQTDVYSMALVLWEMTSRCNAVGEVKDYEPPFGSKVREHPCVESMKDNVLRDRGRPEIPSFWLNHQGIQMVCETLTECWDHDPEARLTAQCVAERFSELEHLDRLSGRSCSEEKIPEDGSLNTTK
Sequence of STK17B (human) (O94768 whole entry, looked up): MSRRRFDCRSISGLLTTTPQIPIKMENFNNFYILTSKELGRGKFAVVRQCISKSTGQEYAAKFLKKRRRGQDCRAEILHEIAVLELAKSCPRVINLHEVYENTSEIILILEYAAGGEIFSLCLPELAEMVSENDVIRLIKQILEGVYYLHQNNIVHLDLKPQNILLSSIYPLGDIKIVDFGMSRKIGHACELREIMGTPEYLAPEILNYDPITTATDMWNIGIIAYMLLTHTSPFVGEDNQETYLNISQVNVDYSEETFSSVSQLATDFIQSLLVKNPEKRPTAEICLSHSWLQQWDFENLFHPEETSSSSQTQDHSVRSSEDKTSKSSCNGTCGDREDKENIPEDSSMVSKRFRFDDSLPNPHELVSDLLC
Sequence of CSNK2A2 (human) (P19784 whole entry, looked up): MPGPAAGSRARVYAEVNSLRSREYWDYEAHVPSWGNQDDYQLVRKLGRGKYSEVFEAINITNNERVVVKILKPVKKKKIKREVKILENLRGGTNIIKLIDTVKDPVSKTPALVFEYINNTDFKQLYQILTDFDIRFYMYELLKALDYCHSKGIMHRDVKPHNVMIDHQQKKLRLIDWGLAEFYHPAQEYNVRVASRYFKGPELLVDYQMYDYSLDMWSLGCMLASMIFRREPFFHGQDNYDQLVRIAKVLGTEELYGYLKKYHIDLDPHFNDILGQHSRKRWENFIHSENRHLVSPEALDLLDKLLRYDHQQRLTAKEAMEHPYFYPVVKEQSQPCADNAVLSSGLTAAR
Sequence of CDK7 (human) (P50613 whole entry, looked up): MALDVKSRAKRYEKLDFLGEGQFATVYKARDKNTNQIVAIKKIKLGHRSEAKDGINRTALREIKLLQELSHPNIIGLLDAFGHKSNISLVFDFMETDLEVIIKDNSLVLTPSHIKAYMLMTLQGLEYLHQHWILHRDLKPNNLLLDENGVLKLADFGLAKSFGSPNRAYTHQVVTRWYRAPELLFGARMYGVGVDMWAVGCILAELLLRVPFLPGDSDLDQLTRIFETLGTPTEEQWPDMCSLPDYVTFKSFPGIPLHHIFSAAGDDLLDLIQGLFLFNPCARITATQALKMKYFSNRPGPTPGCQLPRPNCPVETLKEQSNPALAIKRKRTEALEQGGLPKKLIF
Sequence of STK17A (human) (Q9UEE5 whole entry, looked up): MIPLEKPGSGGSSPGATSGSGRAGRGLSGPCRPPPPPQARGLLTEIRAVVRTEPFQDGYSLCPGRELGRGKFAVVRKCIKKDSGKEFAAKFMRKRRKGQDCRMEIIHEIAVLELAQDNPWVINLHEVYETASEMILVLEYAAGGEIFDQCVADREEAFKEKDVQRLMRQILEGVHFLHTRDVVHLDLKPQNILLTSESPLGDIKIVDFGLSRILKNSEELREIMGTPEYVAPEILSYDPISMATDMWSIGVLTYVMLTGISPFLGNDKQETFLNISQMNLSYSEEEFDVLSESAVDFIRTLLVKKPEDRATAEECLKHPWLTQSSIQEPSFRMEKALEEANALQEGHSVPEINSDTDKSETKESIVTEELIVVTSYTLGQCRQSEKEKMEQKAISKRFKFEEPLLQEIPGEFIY
Sequence of MAPK12 (human) (P53778 whole entry, looked up): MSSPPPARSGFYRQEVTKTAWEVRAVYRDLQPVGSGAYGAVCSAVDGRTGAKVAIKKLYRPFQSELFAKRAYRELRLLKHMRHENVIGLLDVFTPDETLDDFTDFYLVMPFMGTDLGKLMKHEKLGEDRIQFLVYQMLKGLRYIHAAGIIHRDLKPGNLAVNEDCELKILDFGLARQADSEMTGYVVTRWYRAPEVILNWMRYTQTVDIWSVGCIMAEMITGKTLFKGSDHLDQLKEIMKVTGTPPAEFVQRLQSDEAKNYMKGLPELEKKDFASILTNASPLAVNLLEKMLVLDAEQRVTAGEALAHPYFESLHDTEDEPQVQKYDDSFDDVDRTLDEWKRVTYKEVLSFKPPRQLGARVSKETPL

IC50 (PIM1 (human) [1]) [nM] | IC50 (PIM2 (human) [2]) [nM] | kinase still bound, per cent of control (PIK3CG (human)) [%] | kinase still bound, per cent of control (DAPK2 (human)) [%] | kinase still bound, per cent of control (CDK7 (human)) [%] | kinase still bound, per cent of control (MAPK12 (human)) [%] | kinase still bound, per cent of control (STK17A (human)) [%] | kinase still bound, per cent of control (STK17B (human)) [%] | kinase still bound, per cent of control [4] [%] | kinase still bound, per cent of control (PLK4 (human)) [%] | kinase still bound, per cent of control (TGFBR2 (human)) [%] | kinase still bound, per cent of control (PIM1 (human) [5]) [%] | kinase still bound, per cent of control (GSK3A (human)) [%] | kinase still bound, per cent of control (HIPK1 (human)) [%] | kinase still bound, per cent of control (CSNK2A2 (human)) [%] | kinase still bound, per cent of control (PIM2 (human) [6]) [%] | kinase still bound, per cent of control (PIM3 (human)) [%] | Compound | further results
861 | 762 | 28 | 34 | 29 | 27 | 0.4 | 1.6 | 5.1 | 22 | 14 | 3.4 | 28 | 5.2 | 31 | 0.95 | 5.6 | COc1cc(C(N)=O)ccc1-c1ccc(/C=C2\SC(=N)NC2=O)o1 | kinase still bound, per cent of control [3]: 29%; kinase still bound, per cent of control (CLK4 (human)): 17%; kinase still bound, per cent of control (CSNK2A1 (human)): 18%; kinase still bound, per cent of control (ZAP70 (human)): 29%
204 | 274 | 25 | 9 | 1.3 | 12 | 0.65 | 2.8 | 21 | 0.3 | 2.8 | 2.9 | 10 | 0 | 28 | 0.9 | 5 | CS(=O)(=O)Nc1ccc(-c2ccc(/C=C3\SC(=N)NC3=O)o2)cc1 | kinase still bound, per cent of control (CDK16 (human)): 0.3%; kinase still bound, per cent of control (ACVR2A (human)): 7.5%; kinase still bound, per cent of control (RIOK1 (human)): 21%; kinase still bound, per cent of control (DAPK1 (human)): 8.7%; kinase still bound, per cent of control (MYLK (human)): 12%; kinase still bound, per cent of control (RPS6KA4 KD2 (human)): 13%; kinase still bound, per cent of control (MYLK4 (human)): 8.2%; kinase still bound, per cent of control (TAOK1 (human)): 3%; kinase still bound, per cent of control (DYRK1B (human)): 24%; kinase still bound, per cent of control (MINK1 (human)): 30%; kinase still bound, per cent of control (MKNK2 (human)): 33%; kinase still bound, per cent of control (AAK1 (human)): 34%; kinase still bound, per cent of control (MAP2K3 (human)): 7.8%; kinase still bound, per cent of control (ACVR2B (human)): 14%; kinase still bound, per cent of control (TAOK3 (human)): 16%; kinase still bound, per cent of control (DAPK3 (human)): 17%; kinase still bound, per cent of control (TTK (human)): 23%; kinase still bound, per cent of control (GAK (human)): 22%; kinase still bound, per cent of control (MAPK15 (human)): 0.65%
